Source: publication PMC13534789, “Molecular Glue Degraders Enhance CAPRIN1‐Dependent Lysosomal Degradation of APP and Reduce Amyloid β in Alzheimer's Disease” (Advanced Science, 2026)
Like-named read-outs stand apart in the source and are kept apart here.

How the values were obtained:
MDR1 (P-gp) = test: MDR1-MDCKII permeability assay; assay type: in vitro ADME; settings: dog, MDCK-MDR1, pH 7.4, MDR1-MDCKII
Description: (§1) MDR1‐MDCKII assay was processed by Sai Life Sciences Pvt. Ltd. Briefly, MDR1‐MDCKII cells were seeded onto the polycarbonate membranes in the 24‐well insert system at 0.12 × 10^6 cells/well and cultured for 8 days until confluence before being used for the transport studies. Test compounds were diluted with the transport buffer (HPSS with 10 mM HEPES, pH 7.4) from a DMSO stock solution to a concentration of 2 µM (DMSO < 1%) and applied to the apical or basolateral side of the cell monolayer. The plate was incubated for 2.0 h in a CO2 incubator at 37±1°C, with 5% CO2 at saturated humidity without shaking. Permeability was measured in duplicate (n = 2) in both A→B and B→A directions. Loperamide (P‐gp efflux substrate) was tested at 2 µM bidirectionally, Verapamil was used as P‐gp inhibitor. While Atenolol (low permeability marker) and Propranolol (high permeability marker) were tested at 2.00 µM in the A to B direction in duplicate. Test and reference compounds were quantified by LC‐MS/MS analysis based on the peak area ratio of analyte/internal standard (IS). The efflux ratio of each compound was calculated. Permeability measurements were performed in duplicate (n = 2) in both directions, and the summarized permeability values and efflux ratios are presented in Figure 3A. The corresponding experimental data, including bidirectional Papp values, recovery, and variability (%CV), are provided in Table S3, thereby supporting the results shown in Figure 3A. After the transport assay, Lucifer yellow fluorescence rejection assay was performed to confirm the integrity of the cell monolayer.

P-gp (MDR1) = test: MDR1-MDCKII permeability assay; assay type: in vitro ADME; settings: dog, MDCK-MDR1, pH 7.4, MDR1-MDCKII, 2 µM, 2.0 h, n = 2; for Papp A→B at 2 h, 2 µM: read-out: Apical to basal (AP-BL) Papp; for Papp B→A at 2 h, 2 µM: read-out: Basal to apical (BL-AP) Papp
Description: as §1

APP = APP (Homo sapiens, UniProt P05067); test: Western blot of APP in iPSC-derived neurons; assay type: cell-based; parameters: endogenous in cells; host or cells: iPSC-derived neurons (AG27606-Ns, sAD2.3-Ns and others); settings: for APP-degrading activity after Bafilomycin A1 pretreatment: Baf A1 20 nM, AG27606-Ns, sAD2.3-Ns, HEK-APP695 cells; for APP-degrading activity after Bafilomycin A1 pretreatment / APP-degrading activity after MG132 pretreatment: 30 min, then compound 10 µM, 24 h; for APP-degrading activity after MG132 pretreatment: MG132 5 µM
APP, sequence (P05067 18-695 isoform P05067-4): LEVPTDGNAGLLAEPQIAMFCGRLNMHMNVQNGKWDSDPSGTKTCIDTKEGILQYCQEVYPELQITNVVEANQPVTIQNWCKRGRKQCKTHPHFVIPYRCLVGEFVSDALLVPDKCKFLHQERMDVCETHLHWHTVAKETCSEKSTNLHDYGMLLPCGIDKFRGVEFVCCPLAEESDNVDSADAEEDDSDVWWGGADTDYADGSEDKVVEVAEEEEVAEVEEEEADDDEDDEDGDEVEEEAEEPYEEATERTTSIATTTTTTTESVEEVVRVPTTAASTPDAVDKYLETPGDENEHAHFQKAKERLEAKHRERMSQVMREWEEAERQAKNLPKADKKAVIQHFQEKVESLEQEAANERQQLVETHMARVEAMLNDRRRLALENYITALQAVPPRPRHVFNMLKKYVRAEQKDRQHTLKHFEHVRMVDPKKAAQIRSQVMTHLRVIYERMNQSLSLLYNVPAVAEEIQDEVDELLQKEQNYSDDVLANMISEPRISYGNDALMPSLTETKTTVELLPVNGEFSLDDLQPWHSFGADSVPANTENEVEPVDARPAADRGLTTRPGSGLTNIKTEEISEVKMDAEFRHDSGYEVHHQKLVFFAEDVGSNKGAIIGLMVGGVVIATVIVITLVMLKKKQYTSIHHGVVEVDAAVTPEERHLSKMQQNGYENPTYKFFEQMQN
APP, sequence (Q14444 whole entry partner): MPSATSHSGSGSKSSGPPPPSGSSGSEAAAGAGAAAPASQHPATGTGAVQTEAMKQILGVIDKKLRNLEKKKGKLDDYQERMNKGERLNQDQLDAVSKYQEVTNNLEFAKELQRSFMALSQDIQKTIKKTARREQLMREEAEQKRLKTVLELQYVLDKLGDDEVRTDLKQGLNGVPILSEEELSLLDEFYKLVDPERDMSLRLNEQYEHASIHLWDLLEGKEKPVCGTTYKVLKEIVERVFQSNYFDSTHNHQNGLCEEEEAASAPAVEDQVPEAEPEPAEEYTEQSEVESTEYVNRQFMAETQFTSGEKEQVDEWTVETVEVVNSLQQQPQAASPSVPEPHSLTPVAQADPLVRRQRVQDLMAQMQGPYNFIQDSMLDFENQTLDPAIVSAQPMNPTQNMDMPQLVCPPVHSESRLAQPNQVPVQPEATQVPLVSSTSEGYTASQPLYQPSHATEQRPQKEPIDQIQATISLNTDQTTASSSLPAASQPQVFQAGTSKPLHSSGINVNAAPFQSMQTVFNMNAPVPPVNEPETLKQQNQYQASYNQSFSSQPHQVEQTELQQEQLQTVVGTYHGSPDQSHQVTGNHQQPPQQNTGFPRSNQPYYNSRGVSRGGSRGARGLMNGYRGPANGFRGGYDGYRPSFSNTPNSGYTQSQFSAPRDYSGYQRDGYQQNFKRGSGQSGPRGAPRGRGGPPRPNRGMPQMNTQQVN

CAPRIN1–APP interaction = CAPRIN1–APP interaction (Homo sapiens, UniProt P05067+Q14444); test: CAPRIN1–APP interaction in cells (co-IP, confocal colocalization); assay type: cell-based; parameters: endogenous in cells; host or cells: AG27606-Ns, sAD2.3-Ns (iPSC-derived neurons) and their lysates; settings: 10 µM, 24 h; for APP–CAPRIN1 colocalization (confocal, Pearson's coefficient): AG27606-Ns and sAD2.3-Ns
CAPRIN1–APP interaction, sequence (Q14444 2-709 limits assumed): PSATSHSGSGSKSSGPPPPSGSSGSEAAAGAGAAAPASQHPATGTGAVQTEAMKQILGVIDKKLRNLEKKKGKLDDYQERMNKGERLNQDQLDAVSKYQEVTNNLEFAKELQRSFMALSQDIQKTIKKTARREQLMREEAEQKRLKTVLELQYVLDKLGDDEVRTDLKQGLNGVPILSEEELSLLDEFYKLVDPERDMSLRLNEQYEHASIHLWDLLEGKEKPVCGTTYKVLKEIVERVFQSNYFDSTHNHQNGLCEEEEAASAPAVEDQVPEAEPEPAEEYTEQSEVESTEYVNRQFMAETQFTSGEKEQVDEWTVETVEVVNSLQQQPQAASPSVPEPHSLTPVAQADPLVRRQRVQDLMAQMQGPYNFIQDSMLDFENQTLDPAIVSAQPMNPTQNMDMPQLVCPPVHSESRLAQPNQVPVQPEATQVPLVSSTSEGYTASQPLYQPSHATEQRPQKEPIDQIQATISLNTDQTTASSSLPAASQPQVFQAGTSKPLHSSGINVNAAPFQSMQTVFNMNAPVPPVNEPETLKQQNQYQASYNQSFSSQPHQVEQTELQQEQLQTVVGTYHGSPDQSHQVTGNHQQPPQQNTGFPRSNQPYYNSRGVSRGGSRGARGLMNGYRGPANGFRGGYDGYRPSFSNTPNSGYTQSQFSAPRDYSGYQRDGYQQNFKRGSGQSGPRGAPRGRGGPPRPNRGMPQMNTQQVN
CAPRIN1–APP interaction, sequence (P05067 18-695 isoform P05067-4 limits assumed): as the sequence (P05067 18-695 isoform P05067-4) above
Description: Cells were lysed in 1% Triton X‐100 buffer (50 mM Tris (pH 7.4), 150 mM NaCl, 10% glycerol, 1% Triton X‐100, 1 mM EDTA) or RIPA buffer (50 mM Tris (pH7.5), 150 mM NaCl, 0.5% NP40, 0.5% deoxycholate, 0.1% SDS) supplemented with 1 mM PMSF, protease and phosphatase inhibitors. For immunoprecipitation, cell lysates (0.5–1 mg) were incubated with the primary antibodies (1–2 µg) overnight at 4°C and mixed with protein G beads for 4 h. The immunoprecipitants were washed with 1% Triton X‐100 buffer 3 times and eluted with Laemmli buffer, followed by western blot. Immunoprecipitations were performed using the following approaches: (i) Tagged CAPRIN1 immunoprecipitation (HEK293 overexpression assays): HEK293 cells were co‐transfected with APP constructs (including APP695‐HiBiT) and Flag‐ or Myc‐tagged CAPRIN1. CAPRIN1 was immunoprecipitated using anti‐Flag or anti‐Myc antibodies, and co‐precipitated APP was detected by immunoblot; (ii) Endogenous APP immunoprecipitation: APP was immunoprecipitated using anti‐APP antibody (Sigma, A8717), followed by immunoblotting for CAPRIN1. Where indicated, reciprocal immunoprecipitation using anti‐CAPRIN1 antibody was performed, followed by APP detection; (iii) CAPRIN1 immunoprecipitation: In selected experiments, CAPRIN1 was immunoprecipitated using anti‐CAPRIN1 antibody (Proteintech, 15112‐1‐AP), and co‐precipitated proteins including APP and LAMP1 were analyzed by immunoblot; (iv) HiBiT‐based pull‐down assays: In HEK293 cells expressing APP695‐HiBiT, APP constructs were immunoprecipitated using anti‐HiBiT antibody (Promega, N7200), followed by detection of CAPRIN1. Western blot bands were quantified using Fiji (ImageJ) with background subtraction and normalized to loading controls.
Cells were grown on glass cover slips coated with 1% Matrigel and treated with drugs. Cells were washed, fixed, permeabilized, blocked, and incubated in primary antibodies diluted in blocking solution (1% v/v BSA solution/5% Goat serum in PBS containing 0.1% Triton X‐100) overnight at 4°C. The cells were washed three times with PBS and incubated in secondary antibodies in a blocking solution for 1 h at room temperature, then washed with PBS, followed by HOECHST staining (Invitrogen) for 5 min, and washed with PBS. The glass coverslips were put on a slide‐in mounting medium ([…]), and the edges were sealed with coverslip sealant (BIOTIUM). […]
ImageJ (Fiji) program (NIH, Bethesda, MD, USA) was used o analyze images. Pearson's correlation coefficients were calculated with the JACoP plugin from two channels (BIOP). […] Colocalized areas were calculated in the image calculator tool ([…] function) to get an overlayed area for the segmented signals, followed by using the analyze particle tool in Fiji to determine by > 1‐pixel overlapping of the segmented signal. […]

[1] = read-out: % Recovery (Overall) - Apical to basal
[2] = read-out: % Recovery (Overall) - Basal to Apical

Row | SMILES | recovery at 2 h, 2 µM (MDR1 (P-gp); [1]) | recovery at 2 h, 2 µM (MDR1 (P-gp); [2]) | efflux ratio at 2 h, 2 µM (P-gp (MDR1)) | Papp A→B at 2 h, 2 µM (P-gp (MDR1)) | Papp B→A at 2 h, 2 µM (P-gp (MDR1)) | APP-degrading activity after Bafilomycin A1 pretreatment (APP) | APP-degrading activity after MG132 pretreatment (APP) | Intracellular APP (western blot) (APP; SAD2.3-Ns and AG27606-Ns, 72 h, BI 10 µM) | APP–CAPRIN1 colocalization (confocal, Pearson's coefficient) (CAPRIN1–APP interaction) | CAPRIN1–APP interaction (APP IP, CAPRIN1 immunoblot) (CAPRIN1–APP interaction; AG27606-Ns) | CAPRIN1–APP interaction (co-IP) (CAPRIN1–APP interaction; HEK-APP695 cells)
1 | N#Cc1cccc(NC(=O)Nc2nc3ccc(C(=O)N4CCOCC4)cc3s2)c1 [compound 0043] | 121% | 106% | 114 | 0.4 ×10⁻⁶ cm/s | 42.6 ×10⁻⁶ cm/s | abolished | no effect | reduced intracellular APP | increased co‐localization of APP and CAPRIN1 | enhances CAPRIN1‐APP interaction | enhanced the interaction between CAPRIN1 and APP
2 | COc1cccc(NC(=O)Nc2nc3ccc(C(=O)N4CCOCC4)cc3s2)c1 [compound 0152] | 121% | 141% | 78 | 0.5 ×10⁻⁶ cm/s | 37.4 ×10⁻⁶ cm/s | abolished | no effect |  | increased colocalization of APP and CAPRIN1 |  | 
